Patent US5480869A, “Anti-inflammatory peptide analogs and treatment to inhibit vascular leakage in injured tissues” (The Regents of the University of California, priority 1993, dated 1996)
Where “and” joins values, the source holds several entries; their conditions need not be identical. Equal values may be shown once. Where a SMILES comes first, the peptide text is derived from it. [ ]: non-standard residue; d: D form.

test system: rat's hind paw heat-edema; assay: heat-induced paw edema in pentobarbital-anesthetized rat (58° C. water, 1 minute); type: in vivo; details: dose 1 mg/kg i.v., ten minutes before 58° C. water for 1 minute; edema measured 30 minutes after heat
Experimental: The inventive peptides were dissolved either in saline or saline acidified with 0.1 M acetic acid and injected intravenously into a pentobarbital-anesthetized rat. The rat's hind paw was then immersed in 58°-60° C. water for 1 minute and the increase in paw weight, as an index of edema and swelling, was measured 30 minutes later. For some peptides, the ability of the substances to inhibit vascular leakage after muscle injury was also tested. Normally, the paw weight of saline-treated animals (controls) will increase by about 65-95% after heat injury. The increase in weight is relative to the contralateral non-heated paw.
In screening the bioactivity of new peptides, a dose of 5 mg/kg i.v. was initially used. In later studies, when greater activity was expected, a screening dose of 1 to 2 mg/kg i.v. was used.
Thus, each peptide was injected intravenously (at the amounts specified, usually 1 or 5 mg/kg, or by full dose-response analysis) 10 minutes (for 7/8-mers) or one hour (for 11-mers) before immersion of the right paw in 58° C. water, for 1 minute, and weights of both paws were obtained 30minutes later. To obtain statistical accuracy, four to six animals were used in each group. The % wt increase was calculated as (wt of heated paw--wt of unheated paw/wt of unheated paw)×100 and converted to % of the saline control group values, which were run concurrently.

Row | Molecule | Heat-Edema % Saline Values [% Saline Values]
1 | CC[C@H](C)[C@H](NC(=O)[C@@H](CCCCN)NC(=O)[C@H](CC(C)C)NC(=O)[C@H](CC(C)C)NC(=O)[C@H](CCCCN)NC(=O)[C@H](CCCNC(=N)N)NC(C)=O)C(=O)N[C@H](CC(C)C)C(N)=O [Composition 19] (HELM PEPTIDE1{[ac].R.K.L.L.[dK].I.[dL].[am]}$$$$V2.0) | 23 ± 8

same assay, conditions: dose 2 mg/kg i.v., ten minutes before 58° C. water for 1 minute; edema measured 30 minutes after heat

Row | Molecule | Heat-Edema % Saline Values [% Saline Values]
2 | CC[C@H](C)[C@H](NC(=O)[C@H]1CCCN1C(=O)[C@H](CCSC)NC(=O)[C@H](CC(C)C)NC(=O)[C@H](CCCCN)NC(=O)[C@@H](N)CCCNC(=N)N)C(=O)N[C@H](CC(C)C)C(N)=O [Composition 14] (HELM PEPTIDE1{R.K.L.M.[dP].I.[dL].[am]}$$$$V2.0) | 21 ± 3
3 | CC[C@H](C)[C@H](NC(=O)[C@H](Cc1ccc(OC)cc1)NC(=O)[C@H](CCSC)NC(=O)[C@H](CC(C)C)NC(=O)[C@H](CCCCN)NC(=O)[C@@H](CCCCN)NC(C)=O)C(=O)N[C@H](CC(C)C)C(N)=O [Composition 16] (Ac-[dK]KLMY(Me)I[dL]-NH2) | 67 ± 11
4 | CC[C@H](C)[C@H](NC(=O)[C@H](Cc1ccc(OC)cc1)NC(=O)[C@@H](NC(=O)[C@H](CC(C)C)NC(=O)[C@H](CCCCN)NC(=O)[C@H](CCCNC(=N)N)NC(C)=O)C(C)C)C(=O)N[C@H](CC(C)C)C(N)=O [Composition 17] (Ac-RKLVY(Me)I[dL]-NH2) | 49 ± 9
5 | CC[C@H](C)[C@H](NC(=O)[C@H](Cc1ccc(OC)cc1)NC(=O)[C@H](CCSC)NC(=O)[C@H](CC(C)C)NC(=O)[C@H](CCCCN)NC(=O)[C@H](CCCNC(=N)N)NC(C)=O)C(=O)N[C@H](CC(C)C)C(N)=O [Composition 18] (Ac-RKLMY(Me)I[dL]-NH2) | 27 ± 1

same assay, conditions: dose 5 mg/kg i.v., ten minutes before 58° C. water for 1 minute; edema measured 30 minutes after heat; N.S. = not different from saline

Row | Molecule | Heat-Edema % Saline Values [% Saline Values]
6 | CC[C@H](C)[C@H](NC(=O)[C@H](Cc1ccc(O)cc1)NC(=O)[C@H](CCSC)NC(=O)[C@H](CC(C)C)NC(=O)[C@H](CCCCN)NC(=O)[C@@H](N)CCCNC(=N)N)C(=O)N[C@H](CC(C)C)C(N)=O [Composition 5] (HELM PEPTIDE1{R.K.L.M.Y.I.[dL].[am]}$$$$V2.0) | 70 ± 9
7 | CC[C@H](C)[C@H](NC(=O)[C@H](CC(C)C)NC(=O)[C@H](CCSC)NC(=O)[C@H](CC(C)C)NC(=O)[C@H](CCCCN)NC(=O)[C@@H](N)CCCNC(=N)N)C(=O)N[C@H](CC(C)C)C(N)=O [Composition 6] (HELM PEPTIDE1{R.K.L.M.L.I.[dL].[am]}$$$$V2.0) | 67 ± 10
8 | CC[C@H](C)[C@H](NC(=O)[C@H](Cc1c[nH]c2ccccc12)NC(=O)[C@H](CCSC)NC(=O)[C@H](CC(C)C)NC(=O)[C@H](CCCCN)NC(=O)[C@@H](N)CCCNC(=N)N)C(=O)N[C@H](CC(C)C)C(N)=O [Composition 7] (HELM PEPTIDE1{R.K.L.M.W.I.[dL].[am]}$$$$V2.0) | 38 ± 5
9 | CC[C@H](C)[C@H](NC(=O)[C@H](CCCCN)NC(=O)[C@H](CC(C)C)NC(=O)[C@H](CC(C)C)NC(=O)[C@H](CCCCN)NC(=O)[C@@H](N)CCCNC(=N)N)C(=O)N[C@H](CC(C)C)C(N)=O [Composition 8] (HELM PEPTIDE1{R.K.L.L.K.I.[dL].[am]}$$$$V2.0) | 38 ± 10
10 | CC[C@H](C)[C@H](NC(=O)[C@H](CCCNC(=N)N)NC(=O)[C@H](CC(C)C)NC(=O)[C@H](CC(C)C)NC(=O)[C@H](CCCCN)NC(=O)[C@@H](N)CCCNC(=N)N)C(=O)N[C@H](CC(C)C)C(N)=O [Composition 9] (HELM PEPTIDE1{R.K.L.L.R.I.[dL].[am]}$$$$V2.0) | 18 ± 3
11 | CC[C@H](C)[C@H](NC(=O)[C@H](Cc1ccc(F)cc1)NC(=O)[C@H](CC(C)C)NC(=O)[C@H](CC(C)C)NC(=O)[C@H](CCCCN)NC(=O)[C@@H](N)CCCNC(=N)N)C(=O)N[C@H](CC(C)C)C(N)=O [Composition 10] (HELM PEPTIDE1{R.K.L.L.[O=C([C@H](Cc1ccc(F)cc1)N[*:1])[*:2]].I.[dL].[am]}$$$$V2.0) | 54 ± 11
12 | CC[C@H](C)[C@H](NC(=O)[C@H](Cc1ccc(I)cc1)NC(=O)[C@H](CC(C)C)NC(=O)[C@H](CC(C)C)NC(=O)[C@H](CCCCN)NC(=O)[C@@H](N)CCCNC(=N)N)C(=O)N[C@H](CC(C)C)C(N)=O [Composition 11] (HELM PEPTIDE1{R.K.L.L.[O=C([C@H](Cc1ccc(I)cc1)N[*:1])[*:2]].I.[dL].[am]}$$$$V2.0) | 49 ± 6
13 | CC[C@H](C)[C@H](NC(=O)[C@H](Cc1ccc([N+](=O)[O-])cc1)NC(=O)[C@H](CC(C)C)NC(=O)[C@H](CC(C)C)NC(=O)[C@H](CCCCN)NC(=O)[C@@H](N)CCCNC(=N)N)C(=O)N[C@H](CC(C)C)C(N)=O [Composition 12] (HELM PEPTIDE1{R.K.L.L.[O=C([C@H](Cc1ccc([N+](=O)[O-])cc1)N[*:1])[*:2]].I.[dL].[am]}$$$$V2.0) | 41 ± 6

same assay, conditions: dose 5 mg/kg i.v., ten minutes before 58° C. water for 1 minute; edema measured 30 minutes after heat; N.S. = not different from saline; 5 mg/kg

Row | Molecule | Heat-Edema % Saline Values
14 | CC[C@H](C)[C@H](NC(=O)[C@H](Cc1ccc(Cl)cc1)NC(=O)[C@H](CC(C)C)NC(=O)[C@H](CC(C)C)NC(=O)[C@H](CCCCN)NC(=O)[C@@H](N)CCCNC(=N)N)C(=O)N[C@H](CC(C)C)C(N)=O [Composition 13] (HELM PEPTIDE1{R.K.L.L.[O=C([C@H](Cc1ccc(Cl)cc1)N[*:1])[*:2]].I.[dL].[am]}$$$$V2.0) | 15 ± 5 % Saline Values and 15 % Saline Values

same assay, conditions: heat-edema, relative to saline controls

Row | Molecule | anti-inflammatory activity, result in words
15 | CC[C@H](C)[C@H](NC(=O)[C@H](Cc1ccc(OC)cc1)NC(=O)[C@H](CCSC)NC(=O)[C@H](CC(C)C)NC(=O)[C@H](CCCCN)NC(=O)[C@@H](CCCCN)NC(C)=O)C(=O)N[C@H](CC(C)C)C(N)=O [Composition 16] (Ac-[dK]KLMY(Me)I[dL]-NH2) | retention of activity
16 | CC[C@H](C)[C@H](NC(=O)[C@H](Cc1ccc(OC)cc1)NC(=O)[C@@H](NC(=O)[C@H](CC(C)C)NC(=O)[C@H](CCCCN)NC(=O)[C@H](CCCNC(=N)N)NC(C)=O)C(C)C)C(=O)N[C@H](CC(C)C)C(N)=O [Composition 17] (Ac-RKLVY(Me)I[dL]-NH2) | retains activity, albeit at a lower potency
17 | CC[C@H](C)[C@H](NC(=O)[C@H](Cc1ccc(OC)cc1)NC(=O)[C@H](CCSC)NC(=O)[C@H](CC(C)C)NC(=O)[C@H](CCCCN)NC(=O)[C@H](CCCNC(=N)N)NC(C)=O)C(=O)N[C@@H](C(N)=O)C(C)C [Composition 25] (Ac-RKLMY(Me)I[dV]-NH2) | retains activity
18 | CC[C@H](C)[C@H](NC(=O)[C@H](CCCNC(=N)N)NC(=O)[C@H](CCCNC(=N)N)NC(C)=O)C(=O)N[C@H](C(=O)N[C@@H](Cc1ccc(OC)cc1)C(=O)N[C@H](C(=O)N[C@H](CC(C)C)C(N)=O)[C@@H](C)CC)[C@@H](C)CC [Composition 26] (Ac-RRIIY(Me)I[dL]-NH2) | potent anti-inflammatory properties

same assay, conditions: i.v.; 11-mers, injected one hour before 58° C. water for 1 minute; paw weight 30 minutes later; Table 1

Row | Molecule | ED50 (95% confidence limits)
19 | 1ATyRKLL(β-thienyl-D--Ala)Il-NH2 | 0.015 (0.006-0.036) mg/kg

same assay, conditions: i.y. [sic]; 7/8-mers, ten minute interval between administration and 58° C. water for 1 minute; edema 30 minutes after heat; Table 3

Row | Molecule | ED50 (95% confidence limits)
20 | CC[C@H](C)[C@H](NC(=O)[C@@H](Cc1c[nH]cn1)NC(=O)[C@H](CC(C)C)NC(=O)[C@H](CC(C)C)NC(=O)[C@H](CCCCN)NC(=O)[C@@H](N)CCCNC(=N)N)C(=O)N[C@H](CC(C)C)C(N)=O [Composition 20] (HELM PEPTIDE1{R.K.L.L.[dH].I.[dL].[am]}$$$$V2.0) | 2.3 (1.2-4.2) mg/kg
21 | CC[C@H](C)[C@H](NC(=O)[C@@H](CCCNC(=N)N)NC(=O)[C@H](CC(C)C)NC(=O)[C@H](CC(C)C)NC(=O)[C@H](CCCCN)NC(=O)[C@@H](N)CCCNC(=N)N)C(=O)N[C@H](CC(C)C)C(N)=O [Composition 21] (HELM PEPTIDE1{R.K.L.L.[dR].I.[dL].[am]}$$$$V2.0) | 2.0 (0.80-5.0) mg/kg
22 | CC[C@H](C)[C@H](NC(=O)[C@@H](CC(C)C)NC(=O)[C@H](CC(C)C)NC(=O)[C@H](CC(C)C)NC(=O)[C@H](CCCCN)NC(=O)[C@@H](N)CCCNC(=N)N)C(=O)N[C@H](CC(C)C)C(N)=O [Composition 23] (HELM PEPTIDE1{R.K.L.L.[dL].I.[dL].[am]}$$$$V2.0) | 1.3 (0.50-3.6) mg/kg
23 | CC[C@H](C)[C@H](NC(=O)[C@@H](Cc1c[nH]c2ccccc12)NC(=O)[C@H](CC(C)C)NC(=O)[C@H](CC(C)C)NC(=O)[C@H](CCCCN)NC(=O)[C@@H](N)CCCNC(=N)N)C(=O)N[C@H](CC(C)C)C(N)=O [Composition 24] (HELM PEPTIDE1{R.K.L.L.[dW].I.[dL].[am]}$$$$V2.0) | 0.82 (0.56-1.2) mg/kg
24 | CC[C@H](C)[C@H](NC(=O)[C@H](Cc1ccc(OC)cc1)NC(=O)[C@H](CCSC)NC(=O)[C@H](CC(C)C)NC(=O)[C@H](CCCCN)NC(=O)[C@H](CCCNC(=N)N)NC(C)=O)C(=O)N[C@@H](C(N)=O)C(C)C [Composition 25] (Ac-RKLMY(Me)I[dV]-NH2) | 1.0 (0.52-1.9) mg/kg
25 | CC[C@H](C)[C@H](NC(=O)[C@H](CCCNC(=N)N)NC(=O)[C@H](CCCNC(=N)N)NC(C)=O)C(=O)N[C@H](C(=O)N[C@@H](Cc1ccc(OC)cc1)C(=O)N[C@H](C(=O)N[C@H](CC(C)C)C(N)=O)[C@@H](C)CC)[C@@H](C)CC [Composition 26] (Ac-RRIIY(Me)I[dL]-NH2) | 0.70 (0.40-1.2) mg/kg
26 | CC[C@H](C)[C@H](NC(=O)[C@H](Cc1ccc(OC)cc1)NC(=O)[C@H](CCSC)NC(=O)[C@H](CC(C)C)NC(=O)[C@H](CCCCN)NC(=O)[C@@H](CCCNC(=N)N)NC(C)=O)C(=O)N[C@H](CC(C)C)C(N)=O [Composition 27] (Ac-[dR]KLMY(Me)I[dL]-NH2) | 0.52 (0.19-1.8) mg/kg
27 | CC[C@H](C)[C@H](NC(=O)[C@H](Cc1ccc(OC)cc1)NC(=O)[C@H](CCSC)NC(=O)[C@H](CC(C)C)NC(=O)[C@H](CCCCN)NC(=O)[C@H](CCCNC(=N)N)NC(=O)[C@H](Cc1ccc(OC)cc1)NC(C)=O)C(=O)N[C@H](CC(C)C)C(N)=O [Composition 29] (Ac-Y(Me)RKLMY(Me)I[dL]-NH2) | 0.22 (0.09-0.55) mg/kg
